Entries after “also recorded” stand apart in the source; their conditions may differ.
Tests used:
[1] = system: OR-S6, RTP1S and M3 coexpressed; assay: Alphascreen cAMP assay in HEK293T cells; type: cell-based, mouse
Procedure: When OR, RTP1S, and M3 were coexpressed, the background level was slightly higher than other conditions.
Alphascreen cAMP assay (Perkin Elmer) was used to measure changes of cAMP. Cells were plated on 96-cell plate (poly D lysine coated, NUNC). 24 hours after transfection, cells were washed in Hanks containing 5 mM HEPES, 0.1% BSA and 500 uM IBMX for 30 minutes. The cells were then stimulated with Hanks containing 5 mM HEPES, 0.1% BSA and 500 uM IBMX and corresponding chemicals. The stimulated cells were incubated for 10 min at room temperature before lysis. The manufacture's protocol was used to measure cAMP.

[2] = system: OR-S6 coexpressed with M3; assay: CRE-luciferase reporter assay of OR activation in HEK293T cells; type: cell-based, mouse; conditions: HEK293T coexpressing OR-S6, RTP1S and M3 vs. without M3
Procedure: (§1) Given that GPCRs that form heteromeric interactions often show functional co-modulation, experiments were conducted to determine if altering M3 activity directly affects the odor-mediated activation of ORs. […] HEK293T cells Hana3A cells were maintained in minimal essential medium (MEM) containing 10% fetal bovine serum (M10) and penicillin-streptomycin and amphotericin solution. Lipofectamine 2000 (Invitrogen) was used for transfection following manufacturer's protocols. […] Briefly, cAMP response element (CRE)-luciferase (Stratagene) was used to measure OR activation. […] Cells were plated on poly-D-lysine-coated 96-well plates (NUNC) 2 days prior to assay. Cells were transfected with ORs in either Hana3A or HEK293T cell lines along with various combinations of RTP1S, Ric-8b, M3, CRE-luciferase, and pRL-SV40. 18-24 hours after transfection, cells were rinsed with 50 μl of CD293 (Invitrogen) and stimulated with 25 μl of odorant solution dissolved in CD293. Cells were incubated for 4 hours at 37° C. and 5% CO2 before luciferase assays. Protocols for measuring luciferase and Renilla luciferase activities were as described by the manufacturer (Promega). Normalized luciferase activity was calculated with the formula (LN−Lmin)/(Lmax−Lmin), where LN is the luminescence of firefly luciferase in response to the odorant, Lmin is the minimum luciferase value on a plate or set of plates, and Lmax is the maximum luciferase value on a plate or set of plates. The data was analyzed with Microsoft Excel and GraphPad Prism 5. Odorants and muscarinic agonists and antagonists were from Sigma except for darifenacin, which was purchased from Santa Cruz.

[3] = system: olfactory sensory neurons (OSNs); assay: Calcium imaging of acutely dissociated OSNs stimulated with a mix of 10 odorants; type: cell-based, mouse; conditions: paired T-test
[4] = target: T1, OR-S6 coexpressed with M3 (Mus musculus, UniProt Q9ERZ3); assay: CRE-luciferase reporter assay of OR activation in HEK293T cells; type: cell-based
T1 construct: The open reading frames were amplified using Phusion polymerase; expressed in transfected cells; host or cells: HEK293T
Procedure: as §1

OR-S6 = assay: Calcium imaging with HEK293T cells expressing OR-S6 without M3; type: cell-based, mouse
Procedure: (§2) Since M3 potentiates OR signaling, the possibility that OR activation may also enhance M3 signaling was considered.
Calcium imaging with HEK293T cells was performed as described (see, e.g., Y. Ishimaru et al., Proc Natl Acad Sci USA 103, 12569 (Aug. 15, 2006); herein incorporated by reference in its entirety).

M3 = target: T2, M3 (Mus musculus, UniProt Q9ERZ3); assay: Calcium imaging with HEK293T cells expressing M3; type: cell-based; conditions: carbachol 10^−7M
T2 construct: The open reading frames were amplified using Phusion polymerase; expressed in transfected cells; host or cells: HEK293T
Description: as §2

[5] = system: OR-S6 coexpressed with M3; assay: Calcium imaging with HEK293T cells coexpressing OR-S6 and M3; type: cell-based, mouse; conditions: for calcium response to odor alone: OR-S6 and its cofactors (mRTP) coexpressed with M3, 10^−4M nonanedioic acid
Description: as §2

T2 sequence (Q9ERZ3 whole entry): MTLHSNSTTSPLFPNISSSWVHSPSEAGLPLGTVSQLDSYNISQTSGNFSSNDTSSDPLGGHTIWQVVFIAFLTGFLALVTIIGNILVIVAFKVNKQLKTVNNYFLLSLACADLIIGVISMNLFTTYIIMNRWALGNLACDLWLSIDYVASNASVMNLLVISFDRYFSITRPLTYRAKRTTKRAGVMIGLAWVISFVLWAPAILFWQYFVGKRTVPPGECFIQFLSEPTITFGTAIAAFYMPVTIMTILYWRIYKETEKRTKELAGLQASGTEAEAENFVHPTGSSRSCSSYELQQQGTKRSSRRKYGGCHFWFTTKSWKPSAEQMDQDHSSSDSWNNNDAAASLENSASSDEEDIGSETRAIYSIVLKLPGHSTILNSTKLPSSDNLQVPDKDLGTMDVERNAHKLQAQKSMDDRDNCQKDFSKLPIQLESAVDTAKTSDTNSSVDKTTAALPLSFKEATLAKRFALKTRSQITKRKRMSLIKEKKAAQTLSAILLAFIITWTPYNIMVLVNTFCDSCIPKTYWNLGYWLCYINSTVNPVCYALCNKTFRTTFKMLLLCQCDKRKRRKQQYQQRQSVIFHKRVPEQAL
T1 sequence (Q9ERZ3 whole entry): as above

For `C[N+](C)(C)CCOC(N)=O` [carbachol], the “rise in cAMP following OR stimulation, costimulation with carbachol” value ([1]; carbachol 10^−7M, HEK293T transfected with OR-S6, RTP1S and M3) was “even more dramatic; also recorded: further stimulates production of cAMP”.
`C[C@H](CCC(=O)O)C[C@H](C)C[C@H](C)C(=O)/C=C(\O)[C@H](C)C[C@H](C)C/C=C/[C@@H](C)[C@@H](O)[C@@H](C)[C@@H](O)C[C@@H]1CC[C@@](C)([C@H]2CC[C@@](C)([C@@H](C)O)O2)O1` [ionomycin] was tested, and the “CRE-luciferase reporter response without OR ligands” value [2] was “reporter gene responses were not seen” and the “CRE-luciferase reporter response without OR ligands” value ([2]; listed as Ionomycin) was “had no effect on OR activation”.
For `O[Si](CCCN1CCCCC1)(c1ccc(F)cc1)C1CCCCC1` (stereo not drawn) [pfHHSiD], the “odor-mediated calcium responses of OSNs (Fluo-4/Fura-red ratio, Anet)” value ([3]; 10^−6M antagonist with mix of 10 odorants each at 10^−5M) was “Equivalent results; also recorded: attenuated odor-mediated responses of OSNs”.
For `CN1[C@@H]2CC[C@H]1C[C@@H](OC(=O)C(CO)c1ccccc1)C2` (stereo partly drawn) [atropine], the “OR-S6 activation by nonanedioic acid on co-stimulation with muscarinic ligand” value [4] was “hindered the potentiation effect of M3”.
For `O=C(O)CCCCCCCC(=O)O` [nonanedioic acid], the calcium response (OR-S6; HEK293T cells expressing OR-S6 alone) was “No calcium response was observed”, the calcium response (OR-S6; cells coexpressing OR and Gα15olf (positive control)) was “generate a calcium response” and the calcium response (OR-S6; cells coexpressing OR and Gα15olf (positive control), listed as nonandioic acid) was “increase cellular calcium”. The calcium response (M3) was “No response was observed”, the “calcium response to odor alone” value [5] was “strong calcium response” and the “calcium response to odor alone” value ([5]; listed as nonandioic acid) was “calcium level increases”. The calcium response ([5]; cells expressing both S6 and M3 in the absence of RTP) was “does not elicit a calcium response” and the “cellular cAMP levels following stimulation with OR-S6 ligand” value ([1]; cells coexpressing OR-S6, RTP1S and M3 vs. without M3) was “dramatic increase in cellular cAMP levels”.
With `NC(=O)C(c1ccccc1)(c1ccccc1)[C@@H]1CCN(CCc2ccc3c(c2)CCO3)C1` [darifenacin] the “odor-mediated calcium responses of OSNs (Fluo-4/Fura-red ratio, Anet)” value ([3]; 10^−7M antagonist with mix of 10 odorants each at 10^−5M) was “significantly attenuated” and the “odor-mediated calcium responses of OSNs (Fluo-4/Fura-red ratio, Anet)” value ([3]; 10^−7M antagonist with mix of 10 odorants each at 10^−5M, listed as darifenecin) was “attenuated odor-mediated responses of OSNs”.

Reference: patent US10883143B2, “Compositions and methods for enhancing odorant receptor activity” (DUKE UNIVERSITY, priority 2009, dated 2021)
